Source: patent US8497228B2, “Active substance combinations with insecticidal and acaricidal properties” (Bayer Cropscience AG, priority 2007, dated 2013)

Key:
[1] = system: mustard beetle larvae (Phaedon cochleariae); experiment: Phaedon cochleariae larvae test (Example B, cabbage leaves sprayed); conditions: 100 g/ha, spray
[2] = system: green peach aphid (Myzus persicae); experiment: Myzus persicae test (Example A1, cabbage leaves sprayed); type: in vivo; conditions: spray
[3] = system: army worm larvae (Spodoptera frugiperda); experiment: Spodoptera frugiperda larvae test (Example C, cabbage leaves sprayed); type: in vivo; conditions: spray
[4] = system: green peach aphid (Myzus persicae); experiment: Myzus persicae test (Example A2, cabbage leaves dipped); type: in vivo; conditions: dipping
Experimental: Cabbage leaves (Brassica oleracea) which are severely infested with the green peach aphid (Myzus persicae) are treated by dipping into the active substance preparation of the desired concentration.

Structure (SMILES) | Destruction in % after 2 days [1] | Destruction in % after 6 days ([3]; 4 g/ha) | Destruction in % after 6 days ([3]; 0.8 g/ha) | Destruction in % after 1 day ([2]; 0.16 g/ha) | other results
O=C1C=C(N(CCF)Cc2ccc(Cl)nc2)CO1 [Compound I-4, 4-{[(6-chloropyrid-3-yl)methyl](2-fluoroethyl)amino}furan-2(5H)-one] | 0% | 0% |  |  | Destruction in % after 1 day ([2]; 4 g/ha): 30%
O=C1C=C(N(Cc2ccc(Cl)nc2)CC(F)F)CO1 [Compound I-5, 4-{[(6-chloropyrid-3-yl)methyl](2,2-difluoroethyl)amino}furan-2(5H)-one] |  |  | 0% |  | 
CN(Cc1cnc(Cl)c(F)c1)C1=CC(=O)OC1 [Compound I-6, 4-{[(6-chloro-5-fluoropyrid-3-yl)methyl](methyl)amino}furan-2(5H)-one] | 0% | 0% |  | 30% | 
CN(Cc1ccc(Cl)nc1)C1=CC(=O)OC1 [Compound I-10, 4-{[(6-chloropyrid-3-yl)methyl](methyl)amino}furan-2(5H)-one] |  |  |  |  | Destruction in % after 1 day ([4]; 0.8 ppm): 45%
Cc1cc(C(F)(C(F)(F)F)C(F)(F)F)ccc1NC(=O)c1cccc(Cl)c1C(=O)N[C@@H](C)CS(C)(=O)=O [Compound IIb, (S)-3-chloro-N^1-{2-methyl-4-[1,2,2,2-tetrafluoro-1-(trifluoromethyl)ethyl]phenyl}-N^2-(1-methyl-2-methylsulphonylethyl)phthalamide] |  |  | 67% |  | Destruction in % after 1 day ([4]; 100 ppm): 10%; Destruction in % after 1 day ([2]; 0.8 g/ha): 0%; Destruction in % after 6 days ([3]; 0.16 g/ha): 0%
Cc1cc(C(F)(C(F)(F)F)C(F)(F)F)ccc1NC(=O)c1cccc(I)c1C(=O)NC(C)(C)CS(C)(=O)=O [Flubendiamide, flubendiamide, reference compound] | 17% | 67% | 33% | 0% | 
